{"source": "ChEMBL document CHEMBL1122047", "target": "Substance-P receptor (Cavia porcellus) (UniProt P30547)", "sequence (P30547 whole entry)": "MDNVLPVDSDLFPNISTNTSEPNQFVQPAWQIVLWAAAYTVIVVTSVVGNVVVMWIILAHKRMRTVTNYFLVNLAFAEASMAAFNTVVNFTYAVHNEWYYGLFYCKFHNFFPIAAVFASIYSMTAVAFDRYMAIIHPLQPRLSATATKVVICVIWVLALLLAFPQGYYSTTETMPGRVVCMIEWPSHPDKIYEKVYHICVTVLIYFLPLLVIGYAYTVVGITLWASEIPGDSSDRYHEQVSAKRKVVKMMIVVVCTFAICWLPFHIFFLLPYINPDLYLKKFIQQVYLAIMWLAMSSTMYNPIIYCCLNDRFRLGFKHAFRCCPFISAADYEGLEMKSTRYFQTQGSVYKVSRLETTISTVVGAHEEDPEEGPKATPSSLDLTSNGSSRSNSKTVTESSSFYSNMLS", "assay": "Relative affinity for Tachykinin receptor 1 compared with [Nle11]-SP", "note": "Where “and” joins values, the source holds several entries; their conditions need not be identical. Identical values can stand only once."}
{"smiles": "CC(C)C[C@H](NC(=O)CNC(=O)[C@H](Cc1ccccc1)NC(=O)[C@H](Cc1ccccc1)NC(=O)[C@H](CCC(N)=O)NC(=O)[C@H](CCC(N)=O)NC(=O)[C@@H]1CCCN1C(=O)[C@H](CCCCN)NC(=O)[C@@H]1CCCN1C(=O)[C@@H](N)CCCN=C(N)N)C(=O)N[C@@H](Cc1ccc([N+]#N)cc1)C(N)=O", "values": [{"measurement": "RA", "result": "81% and 72%"}]}
{"smiles": "CCCC[C@H](NC(=O)[C@H](CC(C)C)NC(=O)CNC(=O)[C@H](Cc1ccc(N=[N+]=[N-])cc1)NC(=O)[C@H](Cc1ccccc1)NC(=O)[C@H](CCC(N)=O)NC(=O)[C@H](CCC(N)=O)NC(=O)[C@@H]1CCCN1C(=O)[C@H](CCCCN)NC(=O)[C@@H]1CCCN1C(=O)[C@@H](N)CCCN=C(N)N)C(N)=O", "values": [{"measurement": "RA", "result": 50, "unit": "%"}]}
{"smiles": "CC(C)C[C@H](NC(=O)CNC(=O)[C@H](Cc1ccccc1)NC(=O)[C@H](Cc1ccccc1)NC(=O)[C@H](CCC(N)=O)NC(=O)[C@H](CCC(N)=O)NC(=O)[C@@H]1CCCN1C(=O)[C@H](CCCCN)NC(=O)[C@@H]1CCCN1C(=O)[C@@H](N)CCCN=C(N)N)C(=O)N[C@@H](Cc1ccc(N)cc1)C(N)=O", "values": [{"measurement": "RA", "result": "55% and 69%"}]}
{"smiles": "CCCC[C@H](NC(=O)[C@H](CC(C)C)NC(=O)CNC(=O)[C@H](Cc1ccccc1)NC(=O)[C@H](Cc1ccccc1)NC(=O)[C@H](CCC(N)=O)NC(=O)[C@H](CCC(N)=O)NC(=O)[C@@H]1CCCN1C(=O)[C@H](CCCCN)NC(=O)[C@@H]1CCCN1C(=O)[C@@H](N)CCCN=C(N)N)C(N)=O", "values": [{"measurement": "RA", "result": 100, "unit": "%"}]}
{"smiles": "CC(C)C[C@H](NC(=O)CNC(=O)[C@H](Cc1ccccc1)NC(=O)[C@H](Cc1ccccc1)NC(=O)[C@H](CCC(N)=O)NC(=O)[C@H](CCC(N)=O)NC(=O)[C@@H]1CCCN1C(=O)[C@H](CCCCN)NC(=O)[C@@H]1CCCN1C(=O)[C@@H](N)CCCN=C(N)N)C(=O)N[C@@H](Cc1ccccc1)C(N)=O", "values": [{"measurement": "RA", "result": 100, "unit": "%"}]}
{"smiles": "CCCC[C@H](NC(=O)[C@H](CC(C)C)NC(=O)CNC(=O)[C@H](Cc1ccccc1)NC(=O)[C@H](Cc1ccc([N+](=O)[O-])cc1)NC(=O)[C@H](CCC(N)=O)NC(=O)[C@H](CCC(N)=O)NC(=O)[C@@H]1CCCN1C(=O)[C@H](CCCCN)NC(=O)[C@@H]1CCCN1C(=O)[C@@H](N)CCCN=C(N)N)C(N)=O", "values": [{"measurement": "RA", "result": 10, "unit": "%"}]}
{"smiles": "CC(C)C[C@H](NC(=O)CNC(=O)[C@H](Cc1ccccc1)NC(=O)[C@H](Cc1ccccc1)NC(=O)[C@H](CCC(N)=O)NC(=O)[C@H](CCC(N)=O)NC(=O)[C@@H]1CCCN1C(=O)[C@H](CCCCN)NC(=O)[C@@H]1CCCN1C(=O)[C@@H](N)CCCN=C(N)N)C(=O)N[C@@H](Cc1ccc(N=[N+]=[N-])cc1)C(N)=O", "values": [{"measurement": "RA", "result": "48% and 50%"}]}
